Reference: patent US20110086923A1, “Method to increase oxygen in male and female sexual organs through the topical use of perfluorocarbons” (priority 2009, published 2011)

Test: Physical properties of F-tert-butylcyclohexane
Format: physicochemical
From the text: Oxycyte™ is a perfluorocarbon emulsion oxygen carrier. The active ingredient in Oxycyte™, perfluoro(tert-butylcyclohexane) (C10F20, MW-500), also known as F-tert-butylcyclohexane or “FtBu”, is a saturated alicyclic PFC.
Oxycyte™ can be used as a PFC composition in the methods and uses described herein. Physical properties of F-tert-butylcyclohexane are as follows: […]

Q: With `FC(F)(F)C(C(F)(F)F)(C(F)(F)F)C1(F)C(F)(F)C(F)(F)C(F)(F)C(F)(F)C1(F)F` [Perfluoro(tert-butylcyclohexane), perfluoro(tert-butylcyclohexane)] as the compound, how does the Density read?
A: Its Density is 1.97 g/mL.

Q: What about the “Kinematic Viscosity” value of the same compound?
A: The value was 5.378 cP.

Q: What about the lipophilicity of the same compound?
A: The lipophilicity was “non-lipophilic”.

Q: What about the water solubility of the same compound?
A: Its water solubility is “non-water soluble”.

Q: And the “Vapor Pressure @ 25° C.” value (25° C.)?
A: The value was 3.8 mmHg.

Q: And the “Vapor Pressure @ 37° C.” value (37° C.)?
A: The value was 4.4 mmHg.
